Assay [1] deals with LSD1 (Homo sapiens, UniProt O60341). The experiment in a line: LSD1 10-dose IC50 fluorescence coupling enzyme assay (HRP/Amplex Red, resorufin). It counts as biochemical. To be noted: 10 M histone H3(1-21)K4me2 peptide substrate; 3-fold serial dilution in duplicate starting at 100 μM. As for the experimental part:
Compounds were tested in a 10-dose IC50 mode fluorescence coupling enzyme assay with 3-fold serial dilution in duplicate starting at 100 μM. The production of FAD-dependent H2O2 as a result of demethylase activity of LSD1 on […] histone H3(1-21)K4me2 peptide substrate was measured by coupling with HRP and Amplex Red to yield resorufin (fluorescence measured at Ex/Em=535/590 nm on EnVision, Perkin Elmer).

For assay [2], the system named is MV4;11 cells. Put plainly: Cell Titer-Glo Luminescent Cell Viability Assay, cell growth inhibition against MV4;11 cells. Format: cell-based. As for the experimental part: Cell growth inhibition against MV4;11 cells was confirmed for the synthetic compounds. The Cell Titer-Glo Luminescent Cell Viability Assay (Promega, USA) was used to determine the number of viable cells in culture based on quantitation of the ATP present, which signals the presence of metabolically active cells. This assay was run in a 96-well plate format arrayed in a 10-point dose curve, ranging from 0 to 50 μM with 4-fold dilutions for each compound. Cells are seeded on Day 0 at 3750 cells per well. At Day 5, a portion of each well is assayed for viability according to the Cell Titer-Glo protocol. Briefly, cells/plates were centrifuged at 1100×g for 5 minutes. 100 μL of media was removed from each well and replaced with 100 μL of CellTiter-Glo. The plates were shaken at room temperature for 10 minutes and measured on a luminescence plate reader. Another portion of each well from the Day 5 plate is used to seed a new 96 plate containing fresh compound and media set up in the equivalent 10-point dose curve array in order to continue the cell growth inhibition assay for another 5 days. A final timepoint is collected at Day 10 using the Cell Titer-Glo protocol. Luminescence was detected on an EnVision® Multilabel Plate Reader (Perkin Elmer, Waltham, Mass.) and IC50 determination was made using Graph Pad Prism software.

Where [3] appears, read: Homo sapiens, MV4-11, MV4;11 cells, Day 10 (re-seeded at Day 5 with fresh compound), 10-point dose curve 0 to 50 μM, read-out: Cell Titer Glo IC50 (10 d).
[4] abbreviates: Homo sapiens, MV4-11, 120 h, MV4;11 cells, Day 5, 10-point dose curve 0 to 50 μM, read-out: Cell Titer Glo IC50 (5 d).

Like-named read-outs stand apart in the source and are kept apart here.

For the compound `N#Cc1ccc(-c2cc(C(=O)N3CCC[C@@H](N)C3)nn2-c2ccc(N3CCCC3)cc2)cc1F` [Example 62, (R)-4-(3-(3-aminopiperidine-1-carbonyl)-1-(4-(pyrrolidin-1-yl)phenyl)-1H-pyrazol-5-yl)-2-fluorobenzonitrile 2,2,2-trifluoroacetate], the IC50 in assay [1] and in assay [2] (setting [3]) was less than 500 nM each time.
Consider `COc1ccc(-n2nc(C(=O)N[C@@H]3CCNC3)cc2-c2ccc(C#N)c(F)c2)cc1` [Example 27, (R)-5-(4-cyano-3-fluorophenyl)-1-(4-methoxyphenyl)-N-(pyrrolidin-3-yl)-1H-pyrazole-3-carboxamide 2,2,2-trifluoroacetate], for which the IC50 in assay [1] and in assay [2] (setting [4]) was 1000 to 10000 nM each time.
On to `COc1ccc(-n2nc(NC(=O)C3CCNC3)cc2-c2ccc(C#N)c(F)c2)cc1` (stereo not shown) [Example 93, N-(5-(4-cyano-3-fluorophenyl)-1-(4-methoxyphenyl)-1H-pyrazol-3-yl)pyrrolidine-3-carboxamide 2,2,2-trifluoroacetate], for which the IC50 in assay [1] was less than 500 nM; in assay [2] (setting [4]), 1000 to 10000 nM.
Taken in the same sequence, the figures for `Cc1ccc(-n2nc(C(=O)N3CCC(CN)CC3)cc2-c2ccc(C#N)c(F)c2)cc1` [Example 8, 4-(3-(4-(Aminomethyl)piperidine-1-carbonyl)-1-(p-tolyl)-1H-pyrazol-5-yl)-2-fluorobenzonitrile] were less than 500 nM and more than 10000 nM.
In the case of `COc1ccc(-n2nc(C(=O)NC3CCNC3)cc2-c2ccc(C#N)c(F)c2)cc1` (stereo not shown) [Example 21, 5-(4-Cyano-3-fluorophenyl)-1-(4-methoxyphenyl)-N-(pyrrolidin-3-yl)-1H-pyrazole-3-carboxamide], the figures for the IC50 in assay [1] and in assay [2] (setting [4]) were 500 to 1000 nM and 1000 to 10000 nM, respectively.
For the compound `Cc1ccc(-n2nc(C(=O)N3CCC[C@@H](N)C3)cc2-c2ccc(C#N)c(F)c2)cc1` [Example 11, (R)-4-(3-(3-Aminopiperidine-1-carbonyl)-1-(p-tolyl)-1H-pyrazol-5-yl)-2-fluorobenzonitrile], the IC50 in assay [1], in assay [2] (setting [4]) and in assay [2] (setting [3]) was less than 500 nM in each case.
With `N#Cc1ccc(-c2cc(C(=O)N3CCC[C@@H](N)C3)nn2-c2ccc(-c3cnc4c(c3)OCCO4)cc2)cc1F` [Example 84, (R)-4-(3-(3-aminopiperidine-1-carbonyl)-1-(4-(2,3-dihydro-[1,4]dioxino[2,3-b]pyridin-7-yl)phenyl)-1H-pyrazol-5-yl)-2-fluorobenzonitrile 2,2,2-trifluoroacetate], the IC50 in assay [1] and in assay [2] (setting [3]) was less than 500 nM each time.
As for `COc1ccc(-n2nc(NC(=O)[C@H]3CC[C@H](N)CC3)cc2-c2ccc(C#N)c(F)c2)cc1` [Example 91, (1R,4R)-4-Amino-N-(5-(4-cyano-3-fluorophenyl)-1-(4-methoxyphenyl)-1H-pyrazol-3-yl)cyclohexane-1-carboxamide 2,2,2-trifluoroacetate], the IC50 in assay [1] and in assay [2] (setting [4]) was 1000 to 10000 nM each time.
In the case of `Cn1ncc2cc(-n3nc(C(=O)N4CCC[C@H](N)C4)cc3-c3ccc(C#N)c(F)c3)ccc21` [Example 42, (S)-4-(3-(3-aminopiperidine-1-carbonyl)-1-(1-methyl-1H-indazol-5-yl)-1H-pyrazol-5-yl)-2-fluorobenzonitrile 2,2,2-trifluoroacetate], the values for the IC50 in assay [1], in assay [2] (setting [4]) and in assay [2] (setting [3]) were less than 500 nM, 500 to 1000 nM and less than 500 nM, respectively.
Turning to `N#Cc1ccc(-c2cc(C(=O)N3CCC[C@@H](N)C3)nn2-c2ccc(N3CCC(OCCCO)CC3)cc2)cc1F` [Example 69, (R)-4-(3-(3-Aminopiperidine-1-carbonyl)-1-(4-(4-(3-hydroxypropoxy)piperidin-1-yl)phenyl)-1H-pyrazol-5-yl)-2-fluorobenzonitrile 2,2,2-trifluoroacetate], the IC50 in assay [1] and in assay [2] (setting [3]) was less than 500 nM each time.
Take `N#Cc1ccc(-c2cc(C(=O)N3CCC[C@@H](N)C3)nn2-c2ccc(N3CCS(=O)(=O)CC3)cc2)cc1F` [Example 71, (R)-4-(3-(3-aminopiperidine-1-carbonyl)-1-(4-(1,1-dioxidothiomorpholino)phenyl)-1H-pyrazol-5-yl)-2-fluorobenzonitrile 2,2,2-trifluoroacetate]: the IC50 in assay [1] and in assay [2] (setting [3]) was less than 500 nM each time.
`COC1CCN(c2ccc(-n3nc(C(=O)N4CCCC(N)C4)cc3-c3ccc(C#N)c(F)c3)cc2)CC1` (stereo in doubt) [Example 64, (R)-4-(3-(3-aminopiperidine-1-carbonyl)-1-(4-(4-methoxypiperidin-1-yl)phenyl)-1H-pyrazol-5-yl)-2-fluorobenzonitrile 2,2,2-trifluoroacetate]: the concentration for half-maximal inhibition (IC50) in assay [1] is less than 500 nM; in assay [2] (MV4;11 cells, Day 5, 10-point dose curve 0 to 50 μM, 2,2,2-trifluoroacetate, read-out: Cell Titer Glo IC50 (5 d)), less than 500 nM; in assay [2] (MV4;11 cells, Day 10 (re-seeded at Day 5 with fresh compound), 10-point dose curve 0 to 50 μM, read-out: Cell Titer Glo IC50 (10 d)), less than 500 nM.
In the case of `Cc1ccc(-n2nc(C(=O)N3CCCC(N)C3)cc2-c2ccc(C#N)c(F)c2)cc1` (stereo not shown) [Example 6, 4-(3-(3-Aminopiperidine-1-carbonyl)-1-(p-tolyl)-1H-pyrazol-5-yl)-2-fluorobenzonitrile], the IC50 in assay [1] and in assay [2] (setting [4]) was less than 500 nM each time.
In the case of `COc1ccc(-n2nc(C(=O)N3CCCC(N)C3)cc2-c2ccc(C#N)cc2)cc1` (stereo not shown) [Example 2, 4-(3-(3-Aminopiperidine-1-carbonyl)-1-(4-methoxyphenyl)-1H-pyrazol-5-yl)benzonitrile], the IC50 is less than 500 nM in assay [1] and 500 to 1000 nM in assay [2] (setting [4]).
Taken in the same sequence, the figures for `COc1ccc(-n2nc(NC(=O)[C@@H]3CCC[C@@H](N)C3)cc2-c2ccc(C#N)c(F)c2)cc1` [Example 89, (1R,3R)-3-amino-N-(5-(4-cyano-3-fluorophenyl)-1-(4-methoxyphenyl)-1H-pyrazol-3-yl)cyclohexane-1-carboxamide 2,2,2-trifluoroacetate] were less than 500 nM and 1000 to 10000 nM.
Regarding `CN1CCN(c2ccc(-n3nc(C(=O)N4CCC[C@@H](N)C4)cc3-c3ccc(C#N)c(F)c3)cc2)CC1` [Example 60, (R)-4-(3-(3-aminopiperidine-1-carbonyl)-1-(4-(4-methylpiperazin-1-yl)phenyl)-1H-pyrazol-5-yl)-2-fluorobenzonitrile], the IC50 in assay [1] was less than 500 nM; in assay [2] (setting [4]), 500 to 1000 nM; in assay [2] (setting [3]), less than 500 nM.
With `COc1ccc(-n2nc(C(=O)N[C@H]3CCNC3)cc2-c2ccc(C#N)c(F)c2)cc1` [Example 26, (S)-5-(4-cyano-3-fluorophenyl)-1-(4-methoxyphenyl)-N-(pyrrolidin-3-yl)-1H-pyrazole-3-carboxamide 2,2,2-trifluoroacetate], the IC50 is 500 to 1000 nM in assay [1] and 1000 to 10000 nM in assay [2] (setting [4]).
Taken in the same sequence, the figures for `COc1ccc(-n2nc(NC(=O)[C@H]3CCC[C@H](N)C3)cc2-c2ccc(C#N)c(F)c2)cc1` [Example 90, (1S,3S)-3-amino-N-(5-(4-cyano-3-fluorophenyl)-1-(4-methoxyphenyl)-1H-pyrazol-3-yl)cyclohexane-1-carboxamide 2,2,2-trifluoroacetate] were less than 500 nM and 1000 to 10000 nM.
Take `COc1ccc(-n2ncc(C(=O)N3CCCC(N)C3)c2-c2ccc(C#N)cc2)cc1` (stereo not shown) [Example 88, 4-(4-(3-aminopiperidine-1-carbonyl)-1-(4-methoxyphenyl)-1H-pyrazol-5-yl)benzonitrile]: the IC50 in assay [1] and in assay [2] (setting [4]) was more than 10000 nM throughout.
With `COc1ccc(-n2nc(C(=O)N3CCC[C@@H](N)C3)cc2-c2ccc(C#N)c(F)c2)cc1` [Example 18, (R)-4-(3-(3-Aminopiperidine-1-carbonyl)-1-(4-methoxyphenyl)-1H-pyrazol-5-yl)-2-fluorobenzonitrile], the IC50 in assay [1], in assay [2] (setting [4]) and in assay [2] (setting [3]) was less than 500 nM each time.
In the case of `COc1ccc(-n2nc(C(=O)N3CCCC(NC(=N)N)C3)cc2-c2ccc(C#N)c(F)c2)cc1` (stereo not shown) [Example 29, 1-(1-(5-(4-Cyano-3-fluorophenyl)-1-(4-methoxyphenyl)-1H-pyrazole-3-carbonyl)piperidin-3-yl)guanidine 2,2,2-trifluoroacetate], the values for the half-maximal inhibitory concentration (IC50) in assay [1] and in assay [2] (setting [4]) were 1000 to 10000 nM and more than 10000 nM, respectively.
The matching figures for `Cc1cc(CCn2nc(C(=O)N3CCC[C@H](N)C3)cc2-c2ccc(C#N)c(F)c2)on1` [Example 39, (S)-4-(3-(3-aminopiperidine-1-carbonyl)-1-(2-(3-methylisoxazol-5-yl)ethyl)-1H-pyrazol-5-yl)-2-fluorobenzonitrile]: more than 10000 nM and more than 10000 nM.

(Values after patent US20260085082A1, “KDM1A INHIBITORS FOR THE TREATMENT OF DISEASE” (Imago Biosciences, Inc., priority 2022, published 2026).)
